Entries after “also recorded” stand apart in the source; their conditions may differ. Where two headings read alike, the source gives them in different places.
Tests used:
[1] = tested on: L-ArgR (native taste receptor for L-arginine); assay: Taste nerve recordings from the animal, L-ArgR in its native state; type: in vivo, catfish
Excerpt: The properties of the L-ArgR as measured in the bilayer are very similar to those observed through taste nerve recordings from the animal, when the L-ArgR is in its native state.

[2] = tested on: catfish putative taste receptor for L-arginine; assay: Single channel recording of purified receptor reconstituted in planar lipid bilayers (FIG. 9); type: biochemical; conditions: transmembrane potential −100 mV
Excerpt: Proteoliposomes containing purified receptor protein from catfish taste epithelium are fused to planar lipid bilayers. Control records (trace shown in part A) were obtained after addition of proteolipisomes to the membrane bathing solution before addition of L-Arg. […] Transmembrane potential was −100 mV. Traces shown in all panels are continuous records of that specific condition.
This example, in part, describes the extraction, purification, and membrane-reconstitution of a taste receptor for L-arginine (L-arg) from catfish. The methods, which are published and described in Grosvenor, W et al. (2004) BMC Neuroscience 5:25, can be readily adapted for reconstitution of ENaC, ENaC subunits, and salty taste receptors in lipid membranes as described below. The catfish has served as a model for taste receptor studies because the receptors are very sensitive to certain amino acids. One such amino acid is L-arg. Like the ENaC, the taste receptor for L-arg in catfish is an ion channel. Parallel approaches are utilized in solubilizing the L-arg and ENaC-type receptors. The receptors differ primarily by origin—the L-arg receptor is purified from catfish taste tissue and the ENaC subunits are synthesized by a heterologous cell culture expression system. […]

[3] = tested on: salty taste response in humans; conditions: in vivo, cited from earlier work
ENaC delta (δ) subunit = molecular target: T1, ENaC delta (δ) subunit (Homo sapiens, UniProt P51172); conditions: delta versus alpha subunit; cited from earlier work
T1 sequence (P51172 1-802): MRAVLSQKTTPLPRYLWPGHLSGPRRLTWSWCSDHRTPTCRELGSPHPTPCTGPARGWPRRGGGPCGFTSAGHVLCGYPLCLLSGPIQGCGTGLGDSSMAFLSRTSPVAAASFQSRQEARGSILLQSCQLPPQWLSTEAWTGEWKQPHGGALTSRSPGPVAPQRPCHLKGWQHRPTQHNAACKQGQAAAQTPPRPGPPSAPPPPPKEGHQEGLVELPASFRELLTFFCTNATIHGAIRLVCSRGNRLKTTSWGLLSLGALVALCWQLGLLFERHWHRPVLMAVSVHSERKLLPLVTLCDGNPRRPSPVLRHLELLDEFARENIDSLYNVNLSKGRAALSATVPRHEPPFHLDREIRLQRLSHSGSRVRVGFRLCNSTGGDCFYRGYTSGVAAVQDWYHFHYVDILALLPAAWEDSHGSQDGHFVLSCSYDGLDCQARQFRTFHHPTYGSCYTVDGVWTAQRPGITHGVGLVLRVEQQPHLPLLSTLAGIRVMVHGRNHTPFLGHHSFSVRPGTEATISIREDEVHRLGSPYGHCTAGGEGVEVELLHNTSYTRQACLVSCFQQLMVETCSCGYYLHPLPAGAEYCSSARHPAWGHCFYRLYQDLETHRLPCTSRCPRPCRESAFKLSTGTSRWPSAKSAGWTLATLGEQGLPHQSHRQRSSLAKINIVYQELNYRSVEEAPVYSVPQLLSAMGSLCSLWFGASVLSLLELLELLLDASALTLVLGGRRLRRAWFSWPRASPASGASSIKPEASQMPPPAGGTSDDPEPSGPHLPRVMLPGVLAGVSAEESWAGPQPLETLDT
T1 sequence (P51168 1-640 partner): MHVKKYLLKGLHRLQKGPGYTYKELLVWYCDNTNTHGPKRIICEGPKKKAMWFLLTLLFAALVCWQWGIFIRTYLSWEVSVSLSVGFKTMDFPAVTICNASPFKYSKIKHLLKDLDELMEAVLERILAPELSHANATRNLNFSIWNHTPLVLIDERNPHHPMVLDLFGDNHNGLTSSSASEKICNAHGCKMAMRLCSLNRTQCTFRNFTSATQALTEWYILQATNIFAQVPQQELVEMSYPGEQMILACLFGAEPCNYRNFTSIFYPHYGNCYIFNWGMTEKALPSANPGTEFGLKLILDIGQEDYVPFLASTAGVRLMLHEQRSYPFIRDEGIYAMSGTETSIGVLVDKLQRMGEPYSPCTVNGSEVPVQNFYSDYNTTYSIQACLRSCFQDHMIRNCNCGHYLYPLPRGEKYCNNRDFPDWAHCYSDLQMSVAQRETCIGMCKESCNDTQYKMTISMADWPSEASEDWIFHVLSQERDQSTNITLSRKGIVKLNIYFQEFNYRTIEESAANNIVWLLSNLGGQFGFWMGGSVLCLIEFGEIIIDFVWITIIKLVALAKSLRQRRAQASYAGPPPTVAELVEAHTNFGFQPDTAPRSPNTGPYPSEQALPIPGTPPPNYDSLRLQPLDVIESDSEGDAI
T1 sequence (P51170 1-649 partner): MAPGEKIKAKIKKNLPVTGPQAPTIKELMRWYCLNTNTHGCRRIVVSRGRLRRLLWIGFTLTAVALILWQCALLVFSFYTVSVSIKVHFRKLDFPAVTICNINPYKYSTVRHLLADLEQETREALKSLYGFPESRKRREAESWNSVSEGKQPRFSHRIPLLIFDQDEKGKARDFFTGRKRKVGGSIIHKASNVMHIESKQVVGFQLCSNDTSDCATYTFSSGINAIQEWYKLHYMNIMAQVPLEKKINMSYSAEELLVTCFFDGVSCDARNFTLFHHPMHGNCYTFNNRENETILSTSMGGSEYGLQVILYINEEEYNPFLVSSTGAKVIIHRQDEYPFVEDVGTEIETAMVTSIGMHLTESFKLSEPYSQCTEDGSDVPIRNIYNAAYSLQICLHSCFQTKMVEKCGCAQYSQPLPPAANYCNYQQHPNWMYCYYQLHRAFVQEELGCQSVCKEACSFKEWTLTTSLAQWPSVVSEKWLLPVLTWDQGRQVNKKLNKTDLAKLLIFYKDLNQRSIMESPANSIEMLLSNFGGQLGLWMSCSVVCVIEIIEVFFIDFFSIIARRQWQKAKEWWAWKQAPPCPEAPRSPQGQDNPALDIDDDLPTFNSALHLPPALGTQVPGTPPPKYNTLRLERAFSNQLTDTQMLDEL

[4] = molecular target: T2, ENaC composed of human delta, beta, gamma (Homo sapiens, UniProt P51172, C696Y); assay: Amiloride inhibition of ENaC of different composition (FIG. 4); type: biochemical; conditions: gamma ENaC compared with human alpha
T2 sequence (P51172 1-638 isoform P51172-1 C532Y): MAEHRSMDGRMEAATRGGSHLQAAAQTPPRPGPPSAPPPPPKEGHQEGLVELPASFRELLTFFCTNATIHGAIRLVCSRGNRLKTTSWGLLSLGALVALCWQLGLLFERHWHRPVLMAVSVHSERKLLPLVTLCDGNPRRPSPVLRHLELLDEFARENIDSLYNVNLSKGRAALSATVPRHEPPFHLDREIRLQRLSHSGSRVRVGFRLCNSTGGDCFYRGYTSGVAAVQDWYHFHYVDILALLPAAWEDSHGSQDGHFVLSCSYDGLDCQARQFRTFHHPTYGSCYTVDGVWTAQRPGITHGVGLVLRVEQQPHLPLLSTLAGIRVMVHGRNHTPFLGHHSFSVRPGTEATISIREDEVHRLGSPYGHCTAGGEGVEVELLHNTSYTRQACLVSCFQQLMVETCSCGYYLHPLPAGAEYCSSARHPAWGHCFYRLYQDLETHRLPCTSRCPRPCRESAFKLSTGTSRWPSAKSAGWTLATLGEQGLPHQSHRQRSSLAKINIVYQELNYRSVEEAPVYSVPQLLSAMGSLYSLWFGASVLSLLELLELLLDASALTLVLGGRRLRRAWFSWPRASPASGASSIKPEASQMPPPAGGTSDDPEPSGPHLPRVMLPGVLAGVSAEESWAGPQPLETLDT
T2 sequence (P51168 1-640 partner): T1 sequence (P51168 1-640 partner)
T2 sequence (P51170 1-649 partner): T1 sequence (P51170 1-649 partner)

## N=C(N)NCCC[C@@H](N)C(=O)O [D-Arg, D-arginine]
[1]
  effect on the native receptor: inhibits the receptor
[2]; 100 μM, cis-side, after 10 μM L-Arg
  single channel activity after addition to the cis-side following L-Arg: activity ceased
[3]
  effect on salty taste response in humans: equally effective

## N=C(N)NCCC[C@H](N)C(=O)O [L-Arg, L-arginine]
[1]
  sensitivity of the native receptor: in the tenths of uM
[2]; 10 μM, cis-side of bilayer
  single channel activity after addition to the cis-side: evoked regular periodic channel activity
[3]; listed as L-arginine
  effect on salty taste response in humans: equally effective

## [Cl-].[Na+] [NaCl, sodium chloride]
[3]
  concentration at which a salty taste is imparted: above 50 mM

## N=C(N)NC(=O)c1nc(Cl)c(N)nc1N [amiloride]
ENaC delta (δ) subunit
  lower affinity for amiloride of delta subunit relative to alpha subunit: 30 fold
[4]
  amiloride sensitivity of delta-containing ENaC relative to alpha, beta, gamma ENaC: less so than the alpha; also recorded: less sensitive to amiloride
[3]
  effect on salty taste response in humans: inability of amiloride to inhibit sodium-induced salty taste response in humans; also recorded: not sensitive to amiloride

## N=C(N)NCCC[C@H](N)C(=O)O [arginine]
[3]
  effect on salty taste response in humans: salty taste enhancers

## [H]/N=C(\N/C(=N/[H])NCCCCCCNC(=N)NC(=N)Nc1ccc(Cl)cc1)Nc1ccc(Cl)cc1 [chlorhexidine]
[3]
  effect on salty taste response in humans: inhibitor of the salty taste response in humans

## N=C(N)N [guanidine]
[3]
  effect on salty taste response in humans: salty taste enhancers

## N=C(N)NCCCC[C@H](N)C(=O)O [homoarginine]
[3]
  effect on salty taste response in humans: salty taste enhancers
